Experimental data published in US20100273651A1 (priority 2007, published 2010).
Read-outs that look alike come from different tables or passages of the source.

What was measured:
Septoria tritici [1] = experiment: Use example No. 3: activity against Septoria tritici in the microtiter test (Septtr); assay type: cell-based; conditions: relative growth vs active compound-free control (100%), 405 nm, day 7
Phakopsora pachyrhizi = experiment: Use Example 1: curative activity against soybean rust, greenhouse (Phakpa K1); assay type: in vivo; conditions: soybean seedlings sprayed 24 h after inoculation, visual rating after 14 days, untreated 90
Protocol: (§1) The active compounds were prepared separately or jointly as a stock solution comprising 25 mg of active compound which was made up to 10 ml using a mixture of acetone and/or DMSO and the emulsifier Uniperolt EL (wetting agent having emulsifying and dispersing action based on ethoxylated alkyl phenols) in a volume ratio of solvent/emulsifier of 99:1. The mixture was then made up to 100 ml with water. This stock solution was diluted with the solvent/emulsifier/water mixture described to give the concentration of active compounds stated below. Alternatively, the active compounds were used as a commercial finished formulation and diluted with water to the concentration of active compounds stated.
Leaves of potted soybean seedlings were inoculated with a spore suspension of soybean rust (Phakpsora pachyrhizi). The pots were then placed in a chamber with high atmospheric humidity (90 to 95%) and at 23 to 27° C. for 24 hours. During this time, the spores germinated and the germ tubes penetrated into the leaf tissue. The infected plants were then sprayed to runoff point with the active compound solution described above at the active compound concentration stated below. After the spray coating had dried on, the test plants were cultivated in a greenhouse at temperatures between 23 and 27° C. and 60 to 80% relative atmospheric humidity for 14 days. The extent of the rust fungus development on the leaves was then determined visually in percent infection.

Septoria tritici [2] = experiment: Use Example 2: protective activity against Septoria leaf spot of wheat, greenhouse (Septtr P2); assay type: in vivo; conditions: wheat seedlings inoculated 2 days after spraying, % infection of total leaf area after 21 days, untreated 90
Protocol: as §1
Leaves of potted wheat seedlings were sprayed to runoff point with an aqueous suspension having the active compound concentration stated below. 2 days after the spray coating had dried on, they were inoculated with an aqueous spore suspension of Septoria tritici. The test plants were then placed in a greenhouse at temperatures between 20 and 24° C. and a relative atmospheric humidity close to 100% for 4 days and then at temperatures between 18 and 22° C. and an atmospheric humidity of about 70%. After 21 days, the extent of the development of the disease was determined visually in % infection of the total leaf area.

Pyricularia oryzae = assay type: cell-based
Leptno = experiment: Comparative experiments: growth of Leptno (microtest, method not described); assay type: cell-based; conditions: comparative experiments against prior-art compound
[3] = relative growth vs active compound-free control (100%), 405 nm, day 7
[4] = comparative experiments against prior-art compound

1,2-bis[1-rel-(2S,3R)-2-(2-chlorophenyl)-3-(2,4-dichlorophenyl)oxiran-2-ylmethyl-1H-1,2,4-triazole-5-yl]disulfane [Compound 14]
Growth in % at 31 ppm for Septtr (Septoria tritici [1]): 4%

1-[rel-(2S,3R)-2-(2-chlorophenyl)-3-(2,4-dichlorophenyl)oxiran-2-ylmethyl]-1H-1,2,4-triazole-5(4H-6-thione [Compound 2]
Infection in % at 150 ppm for Phakpa K1 (Phakopsora pachyrhizi): 3% | Infection in % at 150 ppm for Septtr P2 (Septoria tritici [2]): 10% | Growth in % at 31 ppm for Pyrior (Pyricularia oryzae; [3]): 5%

S=c1[nH]cnn1C[C@]1(c2ccccc2)O[C@@H]1c1ccc(Cl)c(Cl)c1Cl (relative stereo) [Compound 4, 1-[rel-(2S,3R)-2-phenyl-3-(2,3,4-trichlorophenyl)oxiran-2-ylmethyl]-1H-1,2,4-triazole-5(4H)-thione]
Infection in % at 150 ppm for Phakpa K1 (Phakopsora pachyrhizi): 0% | Infection in % at 150 ppm for Septtr P2 (Septoria tritici [2]): 15%

CSc1ncnn1C[C@]1(c2ccccc2Cl)O[C@@H]1c1ccc(Cl)cc1Cl (relative stereo) [Compound 5, 1-[rel-(2S,3R)-2-(2-chlorophenyl)-3-(2,4-dichlorophenyl)oxiran-2-ylmethyl]-5-(methylthio)-1H-1,2,4-triazole]
Growth in % at 31 ppm for Septtr (Septoria tritici [1]): 0% | Growth in % at 31 ppm for Pyrior (Pyricularia oryzae; [4]): 0%

CSc1ncnn1C[C@]1(c2ccc(F)cc2)O[C@@H]1c1cccc(Cl)c1F (relative stereo) [Compound 7, 1-[rel-(2S,3R)-3-(3-chloro-2-fluorophenyl)-2-(4-fluorophenyl)oxiran-2-ylmethyl]-5-(methylthio)-1,2,4-triazole]
Infection in % at 600 ppm for Phakpa K1 (Phakopsora pachyrhizi; 600 ppm): 0%

CS(=O)(=O)c1ncnn1C[C@]1(c2ccccc2Cl)O[C@@H]1c1ccc(Cl)cc1Cl (relative stereo) [Compound 8, 1-[rel-(2S,3R)-2-(2-chlorophenyl)-3-(2,4-dichlorophenyl)-oxiran-2-ylmethyl]-5-(methylsulfonyl)-1H-1,2,4-triazole]
Growth in % at 31 ppm for Pyrior (Pyricularia oryzae; [3]): 8%

CC(=O)Sc1ncnn1C[C@]1(c2ccccc2Cl)O[C@@H]1c1ccc(Cl)cc1Cl (relative stereo) [Compound 9, S-1-[rel-(2S,3R)-2-(2-chlorophenyl)-3-(2,4-dichorophenyl)oxiran-2-ylmethyl]-1H-1,2,4-triazole-5-ylethanethioate]
Growth in % at 31 ppm for Pyrior (Pyricularia oryzae; [3]): 1%

CC(=O)Sc1ncnn1C[C@]1(c2ccccc2)O[C@@H]1c1ccc(Cl)c(Cl)c1Cl (relative stereo) [Compound 10, S-1-[rel-(2S,3R)-2-phenyl)-3-(2,3,4-trichlorophenyl)oxiran-2-ylmethyl]-1H-1,2,4-triazole-5-yl ethanethioate]
Growth in % at 31 ppm for Septtr (Septoria tritici [1]): 5%

COC(=O)Sc1ncnn1C[C@]1(c2ccccc2Cl)O[C@@H]1c1ccc(Cl)cc1Cl (relative stereo) [Compound 11, S-{2-[2-(2-chlorophenyl)-3-(2,4-dichlorophenyl)oxiranylmethyl]-2H-[1,2,4]triazole-3-yl}methyl rel-(2S,3R)-thiocarbonate]
Growth in % at 31 ppm for Pyrior (Pyricularia oryzae; [3]): 3%

N#CSc1ncnn1C[C@]1(c2ccccc2Cl)O[C@@H]1c1ccc(Cl)cc1Cl (relative stereo) [Compound 12, 1-[rel-(2S,3R)-2-(2-chlorophenyl)-3-(2,4-dichlorophenyl)oxiran-2-ylmethyl]-5-thlocyanato-1H-1,2,4-triazole]
Infection in % at 150 ppm for Phakpa K1 (Phakopsora pachyrhizi): 0% | Infection in % at 150 ppm for Septtr P2 (Septoria tritici [2]): 10%

[Na+].[S-]c1ncnn1C[C@]1(c2ccccc2Cl)O[C@@H]1c1ccc(Cl)cc1Cl (relative stereo) [Compound 13, sodium rel-(2S,3R)-2-(2-chlorophenyl)-3-(2,4-dichlorophenyl)oxiran-2-ylethyl]-1H-[1,2,4]triazole-5-thiolate]
Growth in % at 31 ppm for Leptno (Leptno): 19% | Growth in % at 31 ppm for Pyrior (Pyricularia oryzae; [3]): 19%

CSc1ncnn1C[C@]1(c2ccccc2Cl)O[C@@H]1c1ccccc1Cl [WO9638440, p. 14 (5th compound), reference compound]
Growth in % at 31 ppm for Pyrior (Pyricularia oryzae; [4]): 83%

[Na+].[S-]c1ncnn1C[C@]1(c2ccccc2Cl)O[C@@H]1c1ccccc1Cl [WO9741107, p. 50 (5th compound), reference compound]
Growth in % at 31 ppm for Leptno (Leptno): 51%
